Measurements taken from patent publication US20260325485A1, “COMPOSITIONS AND METHODS FOR TREATING PANCREATITIS” (The United States Government as represented by the …, priority 2022, published 2026).

Legend:
trypsin = assay: Trypsin activity in Gnptab−/− acinar cells; format: cell-based, mouse; conditions: 3 hours; 50 μM CA-074Me or 20 nM BafA1
Protocol: FIGS. 6A-6R show mechanisms mediating increased trypsin activity in Gnptab−/− pancreas. Trypsin activity and its regulation were analyzed in pancreatic (A, C, and D) tissue, (B and P-R) acinar cells, (E-H and O) lobules, and (I-N) subcellular fractions. In B, acinar cells were incubated for 3 hours without and with 20 nM BafAl or 50 μM CatB inhibitor CA-074Me; in P-R, with the cholesterol chelator methyl-β-cyclodextrin (MCD) at the indicated concentrations. In E-H, pancreatic lobules were double stained for TAP and LC3 or LAMP2; in O, for TAP and filipin. Quantitative colocalization analysis was done as detailed in FIG. 2. Each symbol in A, B, J-N, Q, and R represents an individual mouse or cell preparation (n=3-8 per condition). Each symbol in D, G, and H corresponds to 20 to 30 cells in a different field (n=9-20 fields from 3 WT and 3 KO mice or lobule preparations). Values are mean±SEM. **P<0.01, ***P<0.001 vs. WT tissue/lobules (A, G, and H) or corresponding WT subcellular fraction (K and M). ##P<0.01 vs. no inhibitors (B) or MCD (Q and R). ††P<0.01, †††P<0.001 vs. the other two fractions (L and N). Significance was determined by 2-tailed Student's t test (A, G, and H) or 1-way ANOVA followed by Tukey's multiple comparison test (B, K-N, Q, and R). Scale bars: 10 μm.
Activities of cathepsin (Cat) B and L, caspase-3, trypsin, and lysosomal acid lipase (LAL) were measured in pancreatic tissue or cell homogenates and subcellular fractions with fluorogenic assays using substrates specific for CatB (Z-Arg-Arg-AMC), CatL (Z-Phe-Arg-AMC), caspase-3-like ([…]), trypsin (Boc-Gln-Ala-Arg-AMC), as previously described (1-4, 6, 7); and for LAL (4-methylumbelliferyl oleate), as in (17). In measurements of CatL activity, the assay buffer also contained 50 μM CA-074me, a CatB inhibitor. LAL activity was measured in the absence and presence of the LAL inhibitor lalistat (100 μM) as the difference between these values (17).

[1] = tested on: cerulein pancreatitis (CER-AP); assay: Drug treatment of cerulein pancreatitis (CER-AP) in WT mice; format: in vivo, mouse
Protocol: FIGS. 10A-10N show deranged cholesterol metabolism causes acinar cell damage, while its normalization ameliorates experimental pancreatitis. (A-D) Cholesterol content and trypsin activity were measured (per mg protein) in WT mouse acinar cells incubated for 1 hour without and with methyl-β-cyclodextrin (MCD; 10 mM) or cholesterol-loaded MCD (MCD-Chol; 200 μg/mL), in the presence or absence of 100 nM CCK. Values are expressed relative to those in cells without MCD/MCD-Chol. (E-J) WT mice received daily i.p. injections of the LXR agonist T0901317 (T09), simvastatin (Sim; 20 mg/kg each), or vehicle. On day 4, mice were subjected to CER-AP and pancreata collected for analyses (see also FIG. 20). Cholesterol content (E), trypsin activity (F), and pancreas histopathology (H&E staining; G) were measured. (H, I, L, and N) IB analysis of markers/mediators of autophagy (LC3, p62), ER stress (CHOP, GRP-78), and mitophagy (Parkin). Ub, ubiquitylated proteins. (J) Mitochondrial fragmentation was assessed by immunostaining for Tom20, as detailed in FIG. 7G. (K and L) Mouse acinar cells were treated for 16 hours with LDL (30 μg/mL) or the combination of LDL and 10 μM U18666A. (M and N) Mice received injections of U18666A as detailed in FIG. 9B. Pancreas histopathology (H&E staining; M) and levels of autophagy markers/mediators (N) were measured. Each symbol in A-F and I represents an individual mouse or cell preparation. Values are mean±SEM from 3 to 7 mice or cell preparations per condition. ^§ P<0.05, ^§§ P<0.01 vs. control cells (without MCD/MCD-Chol). ***P<0.001 vs. saline-treated mice. ^#P<0.05, ^##P<0.01, ^###P<0.001 vs. CER-AP alone (no inhibitors). Significance was determined by 2-tailed Student's t test (A-D) or 1-way ANOVA followed by Tukey's multiple comparison test (E, F, and I). Scale bars: 10 μm.
FIGS. 20A-20C show simvastatin improves cerulein pancreatitis. Mice received daily i.p. injections of simvastatin (Sim; 20 mg/kg) or vehicle (see FIG. 10), and on day 4 were subjected to cerulein pancreatitis (CER-AP). (A) Pancreas histopathology (H&E staining; scale: 10 μm). (B) IB analysis of markers/mediators of autophagy (LC3, p62), ER stress (CHOP), and the MLN64/STARD3 protein mediating cholesterol transfer from LE/Ly to mitochondria. Each IB lane represents an individual mouse; ERK1/2 is the loading control. […] Ub, ubiquitylated proteins. (C) Pancreatitis responses. Values are mean±SEM from 7-13 mice for each condition. ***p<0.001 vs saline control. ^###p<0.001 vs CER-AP alone (no simvastatin). Significance was determined by 1-way ANOVA followed by Tukey's multiple comparisons test.
FIGS. 25A-25C show reducing cholesterol overload greatly ameliorates experimental pancreatitis. CER-AP responses were measured in (A) AclyAac or (C) WT mice treated with simvastatin or bempedoic acid (BemA). (B) Acinar cells were transfected with ACLA (or mock) siRNA and subjected to ex-vivo CCK-AP. Each symbol represents an individual mouse or cell preparation. Values are mean±SE. **p<0.01, ***p<0.001 vs saline treated control mice (or mock transfection); #p<0.05, ##p<0.01, ###p<0.001 vs CER/CCK-AP in control mice (i.e. without inhibitors) or cells.
Cerulein-induced (CER-AP) and L-arginine induced (Arg-AP) acute pancreatitis models were performed in 12-week-old C57BL/6 mice that received 7 hourly i.p. injections of 50 μg/kg cerulein or 3 hourly i.p. injections of 3.3 g/kg Arg; controls received physiologic saline injections. Mice were euthanized for analyses 7 hours after the first cerulein or 24 hours after the first Arg injection. Choline deficient, ethionine-supplemented (CDE) pancreatitis was induced in young (~5-weeks old) female mice fed either CDE or control diet. Mice were euthanized 72 hours after the diet initiation. These models have been described in detail (1-7).
12-week-old WT mice were subjected for 4 consecutive days to daily i.p. injections of 20 mg/kg simvastatin (8,9) or 20 mg/kg T0901317 (10); or 10 mg/kg U18666A for 15 days (11). […]

pancreas = assay: Drug treatment of Gnptab−/− mice: pancreatic total cholesterol; format: in vivo, mouse
Protocol: 12-week-old Gnptab−/− mice were subjected to daily i.p. injections of 20 mg/kg simvastatin or the same dose of T0901317 for 4 or 21 days.
Total cholesterol content was measured with Cholesterol Assay kit per manufacturer's instructions. Samples of mouse pancreas and liver, cell pellet homogenates, subcellular fractions, isolated mitochondria, and serum were diluted in the reaction buffer containing cholesterol probe and incubated at 37° C. for 1 h in the dark. To measure total cholesterol, the samples were subjected to digestion with cholesterol esterase. To measure non-esterified cholesterol, the esterase was omitted from the assay.

acinar cells = assay: Oxygen consumption rate (OCR) of acinar cells, Seahorse; format: cell-based, mouse; conditions: etomoxir 40 μM
Protocol: FIGS. 7A-7Q show Gnptab ablation causes mitochondrial dysfunction in the pancreas. Mitochondrial functional parameters were measured in mitochondria isolated from pancreas (A, D, J, and M) or liver (N-P), in acinar cells (B, C, and I), and pancreatic (E-H, K, and L) and liver (Q) tissues of WT and KO mice. (A and N) Activities of mitochondrial ETC complexes I, II, IV, and V. (B, C, and I) Acinar cell oxygen consumption rates (OCR), reflecting mitochondrial OXPHOS, were measured in basal conditions and after treatment with the B-oxidation inhibitor etomoxir (40 μM), and normalized to total protein in the sample. (B) Representative OCR tracings in acinar cell suspension subjected to consecutive injections of the ATP synthase inhibitor oligomycin (Oligo; 3 μM), protonophore FCCP (2.7 μM), and […] rotenone plus antimycin A (R+A, 5 μM each; to correct for nonmitochondrial respiration). (C and I) ATP-linked respiration was calculated as the difference between basal OCR and that in Oligo-treated cells; the maximal OCR was obtained in FCCP-treated cells. (D and O) Mitochondrial membrane potential (ΔΨm) was measured with a tetraphenyl phosphonium ion (TPP+) electrode. FCCP (5 μM) was added to completely dissipate ΔΨm. (E) ATP was measured in pancreatic tissue homogenate with luciferin-luciferase assay. […] (G) Mitochondrial fragmentation was assessed by changes in Tom20 or VDAC immunostaining pattern, from an interconnected tubular mitochondrial network in WT to a predominantly disjoined/circular one in KO pancreas. […] (K) Long-chain acylcarnitines were measured with LC-MS/GC-MS. […] Significance was determined by 2-tailed Student's t test.
Oxygen consumption rates (OCR) were measured in live acinar cells using Seahorse XFe96, as in (15). […] In all within-set experiments the same volume of cell suspension were used with the same amount of protein; and partial oxygen pressure was monitored to ensure its stability in the cell suspension.

[2] = CER-AP, T0901317 or simvastatin 20 mg/kg i.p. daily

In the case of `CCCNC(=O)[C@H]1O[C@@H]1C(=O)N[C@H](C(=O)N1CCC[C@H]1C(=O)OC)[C@@H](C)CC` [CA-074Me], the “Reduction of trypsin activity, Gnptab−/− acinar cells” value (trypsin) is reported as “by half”.
`O=S(=O)(c1ccccc1)N(CC(F)(F)F)c1ccc(C(O)(C(F)(F)F)C(F)(F)F)cc1` [T0901317] was tested, and the “CER-induced increase in MLN64” value ([1]; CER-AP, 20 mg/kg i.p. daily) was “abrogated”, the “accumulation of LC3-II” value ([1]; CER-AP, 20 mg/kg i.p. daily) was “reduced” and the “accumulation of p62” value ([1]; CER-AP, 20 mg/kg i.p. daily) was “reduced”. For the same compound, the “accumulation of ubiquitylated proteins” value ([1]; CER-AP, 20 mg/kg i.p. daily) was “reduced”, the “mitochondrial fragmentation (Tom20 IF)” value ([1]; CER-AP, 20 mg/kg i.p. daily) was “normalized” and the CHOP levels ([1]; CER-AP, 20 mg/kg i.p. daily, ER stress) was “decreased”. For the same compound, the “pancreatitis-induced increase in total cholesterol” value [1, 2] was “eliminated”, the “pancreatitis-induced increase in trypsin activity” value [1, 2] was “eliminated” and the “pancreas histopathology in CER-AP” value ([1]; H&E, 20 mg/kg i.p. daily) was “improved”. The “pathologic responses of experimental pancreatitis (impaired autophagy, ER stress and others)” value ([1]; discussion statement) was “reduced”, the “experimental pancreatitis in WT mouse and ex vivo models” value ([1]; overall result) was “ameliorated” and the “total cholesterol content in pancreas, Gnptab−/− mice” value (pancreas; 20 mg/kg i.p. daily for 4 or 21 days) was “Neither treatment changed”. For the same compound, the “pancreatic total cholesterol, Gnptab−/− mice” value (pancreas; even for 3 weeks) was “failed to decrease”.
For `CCOC(=O)[C@@]1(CCCCCCOc2ccc(Cl)cc2)CO1` [etomoxir], the “respiration rates, KO” value (acinar cells; Gnptab−/− (KO) acinar cells) was “not significantly reduced”, the “ATP-linked OCR, WT” value (acinar cells; WT acinar cells) was “inhibition” and the “basal OCR, WT” value (acinar cells; WT acinar cells) was “inhibition”.
